Laboratory results reported in patent US11261210B2, “Glycosylated antitumor ether lipids as novel cancer stem cell cytotoxic agents” (UNIVERSITY OF MANITOBA, priority 2012, dated 2022).

Key:
Format in all cases: cell-based, human
BT-474 cancer stem cells = assay: BT-474 cancer stem cell spheroid formation; settings: BT474 cancer stem cells, FIG. 1B
Protocol: FIG. 1. A. Effect of β-C-Gln (β-AC1) on BT-474 cancer stem cell spheroid formation. BT-474 cancer stem cells were obtained by staining BT474 cells for ALDH1 and sorting the stained from unstained cells by flow cytometry. The ALDH1 stained cells were grown in ultra-low adhesion 6-well plates in mammocult medium for 7 days. The spheroids were isolated and trypsinised to generate single cells. The cells were then seeded for 2 days in ultra-low adhesion 6-well plates, and subsequently incubated in the absence or presence of C-Gln for up to 12 days. The media was replenished after 6 days. B. Effect of β-O-Gln (β-AO1), α-O-Gln (α-AO1), or ET-18-OCH3 on BT-474 cancer stem cell spheroid formation.
Breast cancer stem cell enriched cell population was obtained by staining breast cancer cell lines BT-474 and JIMT-1 for aldehyde dehydrogenase 1 (ALDH1) using the assay kit from Stem Cell Technologies (Vancouver BC, Canada) according to the instructions of the manufacturer with the appropriate controls. […] The cell numbers were determined with a Coulter ZM counter and the cells were seeded into the appropriate low adhesion tissue culture ware for various studies. […]

[1] = tested on: JIMT-1 stem cell spheroids; assay: Morphology of JIMT-1 stem cell spheroids
Protocol: FIG. 7. A. Effect of β-O-Gln, β-C-Gln or ET-18-OCH3 on morphology of JIMT-1 stem cell spheroids. B. Effect of β-O-Gln, α-O-Gln or ET-18-OCH3 on morphology of JIMT-1 stem cell spheroids. JIMT-1 cancer stem cells were grown for 7 days in ultra low adhesion 6 well plates. The tumorspheres formed were harvested, trypsinised and cell numbers were determined. Equal numbers of cells were dispersed into 48-well non-treated plates in mammocult medium and incubated in a CO2 incubator under static conditions. After spheres were formed, O-Gln, C-Gln or ET-18-OCH3 were added (0, 10, 20 and 30 μM) and incubation was for a total of 6 days with media supplementation after 3 days. Images for FIG. 7A were taken at day 0 and after 72 h following addition of the compounds. Images for FIG. 7B were taken after 6 days incubation with the compounds.
The above studies were repeated with JIMT-1 spheroids.

BT474 cancer stem cells = assay: Trypan blue dye exclusion viability of BT474 cancer stem cells; settings: BT474 cancer stem cells incubated with compound
Protocol: Trypan blue dye exclusion assay using the TC10 automated cell counter (BioRad) was also used for some studies.
We investigated the effects of the GAELs and the ALPET-18-OCH3 on the ability of the cancer stem cells to form tumorspheres. […] This was a concentration dependent event and at concentrations greater than 10 μM spheroid formation was completely disrupted.

CCCCCCCCCCCCCCCCOC[C@H](CO[C@@H]1O[C@H](CO)[C@@H](O)[C@H](O)[C@H]1N)OC [β-O-Gln, 1-O-hexadecyl-2-O-methyl-3-O-(2′-amino-2′-deoxy-β-D-glucopyranosyl)-sn-glycerol]
spheroid formation (BT-474 cancer stem cells): unable to form spheroids
spheroid morphology and compactness ([1]; 10-30 μM, after 3 days, FIG. 7A): profound effect on the morphology and compactness
spheroid integrity ([1]; 6 days, FIG. 7B): complete disintegration of the spheroids
viability (trypan dye exclusion) (BT474 cancer stem cells): not viable
